Test results published in patent publication US9056865B2, “Pyridine-2-derivatives as smoothened receptor modulators” (Pfizer Inc., priority 2010, dated 2015).

How the values were obtained:
human Smo = human Smo (Homo sapiens (Human), UniProt Q99835); assay: Smo radioligand competition binding assay; details: for inhibition at 0.05 µM: 0.05 μM test compound, read-out: Smo % inh. @ 0.05 μM
Method: Smo Radioligand Competition Binding Assay
Membranes were prepared from a stable cell line created in HEK293FlpIn-TetR cells (Invitrogen) using Flp recombinase-mediated insertion of the pSecTag-FRT/V5-His vector containing a cDNA encoding amino acids […] of human Smo fused to the murine Igk leader sequence to produce a cell surface expressed Smo 181-781 protein. Hygromycin-resistant clones were obtained and stained for LacZ expression (no expression indicates a correct knock-in of fusion cDNA). LacZ-negative cells were analyzed for binding tritiated Smo antagonists. For membrane preparation, the HEK293 cells expressing Smo 181-781 were grown to 90% confluence in nine to fifteen 245 mm×245 mm×22 mm dishes, washed with Dulbecco's PBS (15 mL per dish) and harvested via scraping in 10 mL of DPBS. The cells were collected and centrifuged at 1500 rpm (400×g) for 10 min at 4° C. The cell pellets were re-suspended in 40 mL of cold DPBS and washed by centrifugation at 2300 rpm (950×g max) for 10 minutes at 4° C. The supernatant was aspirated and the cell pellet was snap frozen in a methanol/dry ice bath and stored at −70° C. For membrane preparation, 15 mL of Membrane Preparation Buffer (50 mM Tris-HCl pH 7.5, 250 mM sucrose with Roche complete protease cocktail tablets) was added to the tube containing the cell pellet, then cells are rapidly thawed, and homogenized using an Ultra-Turrax T8 (IKA Labortechnik) set on “6” for 15 seconds for 5-6 times in icy water bath. This homogenate was diluted up to 50 mL using Membrane Preparation Buffer and centrifuged at 35,000 rpm in a Beckman Ti45 rotor (140,000×g) for 35 minutes at 4° C. followed by aspiration of the supernatant and re-suspension of the pellet in 5 mL of Assay Buffer (50 mM Tris-HCl pH 7.5, 100 mM NaCl, 25 mM MgCl2, 1 mM EDTA, and 0.1% protease free bovine serum albumin). The re-suspended pellet was then homogenized in a glass tissue grinder. The re-suspended membranes were aliquoted (0.5 mL aliquots), snap frozen and stored at −70° C. Total protein in the membrane preparation was determined using the Pierce BCA protein assay (Pierce Chemical).
For the binding competition assay, 100 μL of Assay Buffer was added to all the wells of a 96 well GF/B filter plate (Millipore MultiScreen-HTS-FB cat# MSFBN6B50) for 10 minutes to pre-wet the filter prior to evacuation of the buffer (8 inches Hg for 8 seconds). To the pre-wet wells is added: 20 μL of Assay Buffer, 10 μL diluted test agent, 20 μL of a tritiated Smo antagonist (15 nM stock solution), and 50 μL of membrane preparation (40 μg total protein per well). The plates are sealed and mixed at room temperature for 5 min, incubated at room temperature for 2 hours, then washed 5 times with 100 μL/each of wash buffer and vacuum dried for 8 seconds at 8 inches Hg. The plate is then dried for one hour in a 60° C. oven prior to the addition of 45 μL of Microscint 20 (Packard, #6013621) to each well and incubation at RT for 30 minutes to 1 hour. The plate is counted in a TopCount scintillation counter (Perkin Elmer).
Data analysis uses Excel for % Inhibition and Graphpad Prism for IC50 calculation. Total binding (TB, in the absence of inhibitors)=average of tritiated Smo antagonist 3 nM+Smo membrane (40 μg/wells (approx 5000-7000 CPM)). Non-specific binding (NSB)=average of tritiated Smo antagonist (3 nM)+cold Smo antagonist (30 μM)+Smo membrane (approx 600-1200 CPM). Specific binding (SB)=(total binding−non-specific binding). % Inhibition=[1−(compound Specific binding/control Specific binding)]×100%. IC50 is calculated by fitting the data to the four parameter sigmoidal dose-response curve (variable slope) Y=Bottom+(Top-Bottom)/(1+10^((LogEC50−X)*HillSlope)). X is the logarithm of the inhibitor concentration. Y is the response; Y starts at Bottom and goes to Top with a sigmoid shape.

Gli-Luc/MEF cells = assay: Gli-Luc/MEF assay; assay type: cell-based, mouse; details: Mus musculus, MEF; Shh-stimulated luciferase, 48 hours
Method: The Gli-Luc/MEF cells obtained from Gli-Luc transgenic mice contain a luciferase reporter gene under the control of the Gli response element. Luciferase activity stimulated with Sonic hedgehog ligand was inhibited by Smo inhibitors, and IC50 was subsequently calculated.
Plates were incubated at 37° C. and 5% CO2 overnight. On day two, cells were dosed with test compounds at a final concentration ranging from 3 μM to 50 μM at a 3-time series dilution. Immediately after dosing cells with compounds, recombinant mouse sonic hedgehog (Shh, R&D Systems 464-SH) was added to a final concentration of 2 μg/mL. The cells were incubated with compounds and Shh for 48 hours at 37° C. and 5% CO2. Luciferase assays were conducted on Day 4 using the Bright-Glo Luciferase assay system (Promega E2620) according to Promega's protocol. Briefly, Bright-Glo luciferase reagent was made up and 25 μL were added to each well of the 384-well plate containing media. Plates were kept at room temperature for 5 minutes, and then read on an Envision Luminescence plate reader (Perkin-Elmer). IC50 of the inhibition was calculated by using GraphPad Prism.

Chain of human Smo (Q99835 181-787): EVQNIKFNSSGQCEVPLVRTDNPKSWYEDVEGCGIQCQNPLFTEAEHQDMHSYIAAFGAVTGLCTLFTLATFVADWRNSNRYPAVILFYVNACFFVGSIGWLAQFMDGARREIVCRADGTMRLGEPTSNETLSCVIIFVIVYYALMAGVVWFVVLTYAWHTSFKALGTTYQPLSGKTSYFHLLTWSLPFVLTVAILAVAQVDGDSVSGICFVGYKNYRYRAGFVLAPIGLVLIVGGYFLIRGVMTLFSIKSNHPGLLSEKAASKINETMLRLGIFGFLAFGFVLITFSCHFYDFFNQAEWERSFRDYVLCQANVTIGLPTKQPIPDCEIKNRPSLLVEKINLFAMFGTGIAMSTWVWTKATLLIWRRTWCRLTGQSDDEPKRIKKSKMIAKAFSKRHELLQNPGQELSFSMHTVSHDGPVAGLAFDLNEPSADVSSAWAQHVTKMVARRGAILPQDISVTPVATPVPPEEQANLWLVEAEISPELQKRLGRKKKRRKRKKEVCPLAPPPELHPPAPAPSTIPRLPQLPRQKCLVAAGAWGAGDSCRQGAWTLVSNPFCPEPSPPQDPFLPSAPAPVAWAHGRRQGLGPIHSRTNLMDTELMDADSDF

Compound	IC50 (human Smo) [nM]	inhibition at 0.05 µM (human Smo) [%]	IC50 (Gli-Luc/MEF cells) [nM]
Cc1cccnc1-c1cc(N2CCC(CS(C)(=O)=O)CC2)ncc1Cl [Example A-51, 5′-chloro-3-methyl-2′-{4-[(methylsulfonyl)methyl]piperidin-1-yl}-2,4′-bipyridine]	35.8	87.8	23.6
Cc1cccnc1-c1cc(N2CCC(NC(=O)CC(C)(C)O)CC2)ncc1Cl [Example A-52, N-(1-(5′-chloro-3-methyl-[2,4′-bipyridin]-2′-yl)piperidin-4-yl)-3-hydroxy-3-methylbutanamide]	54.3	90.6	28
CS(=O)(=O)CC1CCN(c2ccc(Cl)c(-c3ccccn3)n2)CC1 [Example A-53, 3-chloro-6-{4-[(methylsulfonyl)methyl]piperidin-1-yl}-2,2′-bipyridine]	38.2	93.3	27.3
Cc1cccnc1-c1cc(N2CCC(C(=O)NCc3ncc[nH]3)CC2)ncc1Cl [Example A-54, 1-(5′-chloro-3-methyl-2,4′-bipyridin-2′-yl)-N-(1H-imidazol-2-ylmethyl)piperidine-4-carboxamide]	64.9	86.1	55.4
Cc1cccnc1-c1cc(N2CCC(C(=O)NC3(c4ccccn4)CC3)CC2)ncc1Cl [Example A-55, 1-(5′-chloro-3-methyl-2,4′-bipyridin-2′-yl)-N-(1-pyridin-2-ylcyclopropyl)piperidine-4-carboxamide]	63.3	83.7	25.2
Cc1cccnc1-c1cc(N2CCC(C(=O)N3CCC(Nc4ccccn4)CC3)CC2)ncc1Cl [Example A-56, N-(1-{[1-(5′-chloro-3-methyl-2,4′-bipyridin-2′-yl)piperidin-4-yl]carbonyl}piperidin-4-yl)pyridin-2-amine]	106	80.5	41.6
Cc1cccnc1-c1cc(N2CCC(C(=O)N[C@@H]3CCN(S(C)(=O)=O)C3)CC2)ncc1Cl [Example A-57, 1-(5′-chloro-3-methyl-2,4′-bipyridin-2′-yl)-N-[(3R)-1-(methylsulfonyl)pyrrolidin-3-yl]piperidine-4-carboxamide]	90.7	87.9	78.2
Cc1cccnc1-c1cc(N2CCC(C(=O)N[C@@H]3c4ccccc4C[C@@H]3O)CC2)ncc1Cl [Example A-58, 1-(5′-chloro-3-methyl-2,4′-bipyridin-2′-yl)-N-[(1R,2S)-2-hydroxy-2,3-dihydro-1H-inden-1-yl]piperidine-4-carboxamide]	184	70.3	38.8
COc1cnc(NC(=O)C2CCN(c3cc(-c4ncccc4C)c(Cl)cn3)CC2)cn1 [Example A-59, 1-(5′-chloro-3-methyl-2,4′-bipyridin-2′-yl)-N-(5-methoxypyrazin-2-yl)piperidine-4-carboxamide]	71.4	89.5	21.2
Cc1cccnc1-c1cc(N2CCC(C(=O)N[C@H]3CCN(S(C)(=O)=O)C3)CC2)ncc1Cl [Example A-60, 1-(5′-chloro-3-methyl-2,4′-bipyridin-2′-yl)-N-[(3S)-1-(methylsulfonyl)pyrrolidin-3-yl]piperidine-4-carboxamide]	67	83.8	57.4
Cc1cccnc1-c1cc(N2CCC(C(=O)NCCC3C(=O)Nc4ccccc43)CC2)ncc1Cl (stereo not drawn) [Example A-61, 1-(5′-chloro-3-methyl-2,4′-bipyridin-2′-yl)-N-[2-(2-oxo-2,3-dihydro-1H-indol-3-yl)ethyl]piperidine-4-carboxamide]	40.9	91.9	37.1
Cc1cccnc1-c1cc(N2CCC(C(=O)N3CC(S(=O)(=O)CC4CC4)C3)CC2)ncc1Cl [Example A-62, 5′-chloro-2′-[4-({3-[(cyclopropylmethyl)sulfonyl]azetidin-1-yl}carbonyl)piperidin-1-yl]-3-methyl-2,4′-bipyridine]	234	72.4	106
